Measured values published in PubChem BioAssay (NCI).
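Compound exposure: 48 hours, 5 concentrations, 96-well plates. TGI: total growth inhibition.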

Tests used:
Assay in all cases: growth of human tumour cells (NCI), 48 h
786-0 renal = system: 786-0 renal
A549 NSCLC = system: A549 NSCLC
HT29 colon = system: HT29 colon
IGROV1 ovarian = system: IGROV1 ovarian
MCF7 breast = system: MCF7 breast
MDA-MB-231 breast = system: MDA-MB-231 breast
NCI-H226 lung = system: NCI-H226 lung
PC-3 prostate = system: PC-3 prostate
SK-MEL-2 melanoma = system: SK-MEL-2 melanoma
UACC-62 melanoma = system: UACC-62 melanoma

| Compound | TGI (786-0 renal) [µM] | TGI (A549 NSCLC) [µM] | TGI (HT29 colon) [µM] | TGI (IGROV1 ovarian) [µM] | TGI (MCF7 breast) [µM] | TGI (MDA-MB-231 breast) [µM] | TGI (NCI-H226 lung) [µM] | TGI (PC-3 prostate) [µM] | TGI (SK-MEL-2 melanoma) [µM] | TGI (UACC-62 melanoma) [µM] |
| --- | --- | --- | --- | --- | --- | --- | --- | --- | --- | --- |
| COc1ccc(/[N+]([O-])=C/c2ccccc2OC(=S)S)cc1 | 65.5 | > 100 | 49.7 | > 100 | > 100 | > 100 | > 100 | > 100 | 65.7 | > 100 |
| Clc1cc2ncn(C3CCCO3)c2cc1Cl (stereo not given) | > 100 | > 100 | > 100 | 69.5 | > 100 | > 100 | > 100 | > 100 | > 100 | > 100 |
| CO/C(N)=C(\C#N)N=Cc1cccs1 | > 100 | > 100 | > 100 | > 100 | > 100 | > 100 | > 100 | > 100 | > 100 | > 100 |
| O=C(Cn1c(-c2ccccc2)cc2ccccc21)N1CCOCC1 | > 100 | > 100 | > 100 | > 100 | > 100 | > 100 | > 100 | > 100 | > 100 | > 100 |
| CC1=C(C(=O)OC(C)(C)C)C(c2ccc([N+](=O)[O-])cc2)C(C(=O)OC(C)(C)C)=C(C)N1 | 38.7 | 52.3 | 48.8 | 32.2 | 31.8 | 41.4 | 39.1 | 45.1 | 46.6 | 34.8 |
| CCN(CCCl)c1ccc(NC(=O)c2cc(C(=O)NCCN(C)C)cc(C(=O)Nc3ccc(N(CC)CCCl)cc3)c2)cc1 | 3.12 | 25.7 | 11.8 | 29.1 | 19.6 | 34.9 | 25.1 | 16.3 | 44.1 | 27.5 |
| Nc1c(/C=C/c2cc3cc(C4=NCCN4)ccc3o2)[nH]c2cc(C3=NCCN3)ccc12 | > 100 | > 100 | > 100 | > 100 | > 100 | > 100 | > 100 | > 100 | > 100 | > 100 |
| CN1Cc2c(ccc3c2OCO3)[C@@H]2[C@H](O)Cc3cc4c(cc3[C@@H]21)OCO4 | > 75 | > 100 | 5.12 | > 100 | > 48.7 | 24.6 | 9.94 | > 100 | > 27.1 | > 24 |
| O=C(NCc1ccc(Cl)c(Cl)c1)c1nc2ccccc2nc1NCc1ccc(Cl)c(Cl)c1 | > 100 | > 100 | > 100 | > 100 | > 100 | > 100 | > 100 | > 100 | > 100 | > 100 |
| CCCCC(C)(C/C=C/[C@@H]1[C@@H](C(O)CCCCCC(=O)OC)C(=O)C[C@H]1O[Si](C)(C)C(C)(C)C)O[Si](C)(C)C (stereo not given in full) | > 100 | > 100 | > 100 | > 100 | > 100 | > 100 | > 100 | > 100 | > 100 | > 100 |
| CO[C@@H](c1ccccc1)[C@H](O)[C@@](O)(c1ccccc1)P(=O)(OC)OC | > 100 | > 100 | > 100 | > 100 | > 100 | > 100 | > 100 | > 100 | > 100 | > 100 |
| CC(C)[C@H](NC(=O)OCc1ccccc1)C(=O)N[C@H](/C=C/C(=O)OC(C)(C)C)CO | > 100 | > 100 | > 100 | > 100 | > 100 | > 100 | > 100 | > 100 | > 100 | > 100 |
| Nc1nc(Nc2cc(F)c(Cl)c(F)c2)cc(=O)[nH]1 | > 100 | > 100 | > 100 | > 100 | > 100 | > 100 | > 100 | > 100 | > 100 | > 100 |
| N#Cc1c2c(c(Nc3ccc(Cl)cc3)n3c1nc1ccccc13)CCCC2 | > 100 | > 100 | > 100 | > 100 | > 100 | > 100 | > 100 | > 100 | > 100 | > 100 |
| COc1ccc2c(C=O)c3n(c(=O)c2c1OC)CCc1cc2c(cc1-3)OCO2 | > 100 | > 100 | > 100 | > 100 | > 100 | > 100 | > 100 | > 100 | > 100 | > 100 |
